Reference: a melting point compilation (Tetko et al.)

O=C(O)c1cc2cc([N+](=O)[O-])ccc2oc1=O gave a melting point of 200 °C.
In the case of Cc1ccc2ccc3ccc(C)nc3c2n1, the melting point is reported as 160 °C.
COc1ccc(C(CCC(=O)O)C(C)(C)C(=O)O)cc1 (stereo not drawn) showed a melting point of 121 °C.
Work on Cc1cnc(C(=O)O)c[n+]1[O-] yielded a melting point of 178 °C.
NCC[C@H](O)C(=O)O showed a melting point of 200 to 203 °C.
In the case of Cc1ccccc1NC(=S)/C(=N\NC(=N)N)c1ccccc1, the melting point is reported as 206 to 207 °C.
With Cc1cccc(Cn2nc(C(C)(C)C)cc2C(=O)NN)c1 the melting point was 102 to 104 °C.
For CC12CCC(C(=O)/C(=N\Nc3ccccc3)C1=O)C2(C)C (stereo not drawn), the melting point was 117 °C.
For C(=Cc1ccccc1)CCC=Cc1ccccc1, the melting point was 82 °C.
Work on Cc1cc(O)nc(O)c1 yielded a melting point of 197 °C.
Work on O=C(NC(CO)C(=O)OCc1ccccc1)OCc1ccccc1 (stereo not drawn) yielded a melting point of 83 °C.
In the case of Brc1c2ccccc2cc2ccccc12, the melting point is reported as 100 °C.
In the case of CC(C(=O)NCCO)c1ccc(-c2ccccc2)c(F)c1 (stereo not drawn), the melting point is reported as 94 to 96 °C.
NCCNCCNCCNCCN gave a melting point of -30 °C.
For BrC/C=C/CBr, the melting point was 53.4 °C.
Compound Sc1nc(-c2ccccc2)cs1 has a melting point of 174 °C.
For CCCCC(=O)OC1(C(=O)CO)CCC2C3CCC4=CC(=O)CCC4(C)C3C(O)CC21C (stereo not drawn), the melting point was 218 °C.
For CCCc1cc(C(C)=O)c(O)cc1O, the melting point was 99 to 101 °C.
With O=C(O)CCCCCCCCCCCCC(=O)O the melting point was 127 °C.
Compound Nc1nc2ccccc2n1Cc1ccc(F)cc1 has a melting point of 191 to 193 °C.
For COC(=O)c1cc(O)ccc1O, the melting point was 87 °C.
Compound O=C(O)C=Cc1ccc(Sc2ccc(Br)cc2)c([N+](=O)[O-])c1 has a melting point of 232 to 234 °C.
COc1cccc2[nH]ccc12 showed a melting point of 70 °C.
For COc1cc2c(cc1OC)OC(C)(C)C=C2, the melting point was 46 °C.
In the case of Cc1ccc(/N=N/C2C(=O)NN(c3ccccc3)C2=O)cc1 (stereo not drawn), the melting point is reported as 247 °C.
For N#Cc1ccc(N2CCNCC2)cc1, the melting point was 82 to 84 °C.
Work on O=CC(Cl)=C(Cl)C(=O)O yielded a melting point of 127 °C.
In the case of Cn1nc(N)c2c(=O)cc[nH]c21, the melting point is reported as 215 to 220 °C.
In the case of O=C(Nc1ccccc1NC(=O)c1ccccc1)c1ccccc1, the melting point is reported as 301 to 302 °C.
CCOC(=O)c1nn(-c2ccc(C)cc2)c(C)c1C(=O)c1noc(-c2ccc(Br)cc2)c1S(=O)(=O)c1ccccc1 gave a melting point of 170 °C.
Compound O=C(O)C(c1ccccc1)(c1ccccc1)c1ccccc1 has a melting point of 268 to 269 °C.
Work on Nc1c([N+](=O)[O-])cc(F)c(F)c1F yielded a melting point of 46 to 48 °C.
For CC(=O)C1(C)CCC2C3C=C(C)C4=CC(=O)CCC4(C)C3CCC21C (stereo not drawn), the melting point was 144 °C.
With CC(O)(C(=O)O)c1ccccc1 (stereo not drawn) the melting point was 116 °C.
With CC(=O)Nc1nn(C(C)=O)c2ncccc12 the melting point was 217 to 219 °C.
In the case of COC(=O)[C@@H](C)Oc1ccc(O)cc1, the melting point is reported as 64 to 67 °C.
Work on Cc1c(N)cc([N+](=O)[O-])cc1C(N)=O yielded a melting point of 199 °C.
O=C1CCc2ccccc2C1 gave a melting point of 18 °C.
CC(=O)N1CCN(c2ccc(OCC3COC(Cn4ccnc4)(c4ccc(Cl)cc4Cl)O3)cc2)CC1 (stereo not drawn) showed a melting point of 146 °C.
N#CCc1ccc(OCc2c(F)cccc2Cl)cc1 gave a melting point of 78 to 79 °C.
Compound CC(C)CC(=O)C=Cc1ccccc1 has a melting point of 43 °C.
In the case of CC(C)C=CC(=O)O, the melting point is reported as 35 °C.
CCOC(=O)c1c(-c2ccccc2)csc1NC(=O)c1ccc(Cl)cc1Cl gave a melting point of 149 to 150 °C.
With COC(=O)c1cc2c(=O)oc3ccccc3c2nc1C the melting point was 215 °C.
With Cc1ccc(F)c(O)c1Cl the melting point was 49 °C.
In the case of N#Cc1cc(Cl)cc(Cl)c1N, the melting point is reported as 120 to 126 °C.
O=C(CC(=O)C(F)F)c1ccccc1 gave a melting point of 37 to 45 °C.
Work on O=[N+]([O-])c1cc(C2CCCCC2)c(O)c([N+](=O)[O-])c1 yielded a melting point of 107 °C.
O=C(O)c1cccnc1F showed a melting point of 164 to 165 °C.
With CCOC(=O)c1c2n(n(-c3ccc([N+](=O)[O-])cc3)c1=N)C(=O)CS2 the melting point was 145 to 148 °C.
With c1cnc2c(c1)OCCN2 the melting point was 85 to 86 °C.
For BrCC(Br)c1cccc(C(Br)CBr)c1 (stereo not drawn), the melting point was 65 °C.
CCCCc1c(C)nc(N)nc1Cl showed a melting point of 162 °C.
With O=C(O)c1cccc(-c2nccs2)c1 the melting point was 160 to 162 °C.
For O=C(Cl)C1COc2ccccc2O1 (stereo not drawn), the melting point was 56 to 57 °C.
Work on O=C(O)c1ccc(-c2ccccc2F)cc1 yielded a melting point of 234 to 236 °C.
For CCc1ccc(C(c2ccc(CC)cc2)C(Cl)Cl)cc1, the melting point was 56 °C.
Compound NCCCCCCCCCN has a melting point of 38 °C.
Work on O=S(=O)(c1ccccc1)c1ccsc1 yielded a melting point of 116 °C.
With COc1ccc2[nH]cc(CCN(C)C)c2c1 the melting point was 69.5 °C.
Cc1ccc(-n2c(C)cc(C(=O)CCl)c2C)cc1 gave a melting point of 81 to 83 °C.
For CN(C)C(C)(C)CO, the melting point was 19 °C.
With Cc1cnc(Cl)c(Br)c1 the melting point was 66 to 68 °C.
With COc1ccc(-c2nc(CCl)no2)cc1 the melting point was 60 to 62 °C.
With O=[N+]([O-])c1ccc(Br)nc1 the melting point was 138 °C.
Work on CC1CCC(C)(C(=O)CN2C(=O)c3ccccc3C2=O)C1(C)C (stereo not drawn) yielded a melting point of 99 °C.
COC(=O)c1ccc(OC)cc1O gave a melting point of 49 to 53 °C.
CC1(C)OC2OC(CO)C(O)C2O1 (stereo not drawn) gave a melting point of 68 to 70 °C.
In the case of Nc1nc(O)nc2c1cnn2CCO, the melting point is reported as 305 to 310 °C.
For O=c1cc(-c2ccccc2)cc(-c2ccccc2)o1, the melting point was 137 °C.
Work on OC(c1ccccc1)(c1ccccc1)C(O)(c1ccccc1)c1ccccc1 yielded a melting point of 184 to 186 °C.
Cc1nc2ccccc2n1CCC(=O)NN1C(=O)CSC1c1ccccc1Cl (stereo not drawn) gave a melting point of 250 °C.
Compound CCC(C)Nc1ccc(NC(C)CC)cc1 (stereo not drawn) has a melting point of 18 °C.
In the case of CCN(CC)CCOC(=O)C(c1ccccc1)c1ccccc1, the melting point is reported as 114 °C.
With N#CCc1ccccc1C#N the melting point was 73 to 79 °C.
For O=C1CC(c2ccccc2)Oc2cc(O)ccc21 (stereo not drawn), the melting point was 188 °C.
N#Cc1cccc(Cn2cncn2)c1 gave a melting point of 91 to 92 °C.
Compound CC(Cc1ccccc1)c1ccccc1 (stereo not drawn) has a melting point of 52 °C.
For COc1ccc(OCCBr)cc1, the melting point was 46 to 50 °C.
COc1cnc(NS(=O)(=O)c2ccc(N)cc2)nc1 showed a melting point of 215 °C.
With Clc1cccc(C(Cl)(Cl)Cl)n1 the melting point was 63 °C.
For O=C(O)[C@H](O)c1ccccc1Cl, the melting point was 118 to 121 °C.
With Brc1cc(Br)ncn1 the melting point was 51 °C.
Work on CCC(C)c1cc([N+](=O)[O-])cc([N+](=O)[O-])c1OC(=O)C=C(C)C (stereo not drawn) yielded a melting point of 70 °C.
CCOCCOC(=O)C(C)Oc1ccc(Oc2ncc(C(F)(F)F)cc2Cl)cc1 (stereo not drawn) showed a melting point of 60 °C.
SCCCS gave a melting point of -79 °C.
In the case of CN1C(=O)CC(c2ccccc2)C1=O (stereo not drawn), the melting point is reported as 72 °C.
With CN(C(=O)OC(C)(C)C)C(C)(C)C(=O)O the melting point was 153 to 157 °C.
With Oc1ccccc1-c1ccccc1O the melting point was 109 °C.
Compound Cc1nc(-c2ccccc2)c(C=O)s1 has a melting point of 72 to 75 °C.
With O=C(C=Cc1ccccc1)c1ccc(O)cc1 the melting point was 174 to 178 °C.
For CC(COc1ccccc1)N(CCCl)Cc1ccccc1 (stereo not drawn), the melting point was 39 °C.
OCC1C2C=CC(C2)C1CO (stereo not drawn) showed a melting point of 85 to 85.5 °C.
Work on CCCC(=O)Oc1c[nH]c2cc(Cl)c(Br)cc12 yielded a melting point of 96 to 100 °C.
In the case of CCCc1nc(OC(C)=O)n(-c2ccccc2)n1, the melting point is reported as 84 °C.
In the case of NS(=O)(=O)c1ccc(C(F)(F)F)cc1, the melting point is reported as 180 °C.
Work on CCCC=NO yielded a melting point of -29.5 °C.
In the case of COc1ccc(N(CCCC(=O)O)C(=O)c2ccc(Cl)cc2)cc1, the melting point is reported as 116 °C.
For CC(=O)Nc1cc(Cl)c(Cl)cc1NC(C)=O, the melting point was 255 to 258 °C.
CC(C)C[C@@H](N)C(=O)O showed a melting point of 300 °C.
In the case of CCCCCSC, the melting point is reported as -94 °C.
With CCSCCO the melting point was -100 °C.
CC(=O)OC1CCC2(C)C3CCC4(C)C(C(C)CCCC(C)C)CCC4C3CC(OC(C)=O)C2(O)C1 (stereo not drawn) gave a melting point of 164 °C.
Work on C=C1CCC(=O)O1 yielded a melting point of 18 °C.
NCC(=O)O gave a melting point of 182 °C.
Work on c1ccc(CC2CCNCC2)cc1 yielded a melting point of 16.8 °C.
CC(O)C(c1ccccc1)c1ccccc1 (stereo not drawn) showed a melting point of 59 to 63 °C.
Compound O=C(O)CCN1C(=O)c2ccccc2C1=O has a melting point of 152 °C.
Work on O=C(C=Cc1ccc(-c2ccc(Br)cc2)o1)c1ccco1 yielded a melting point of 164 to 165 °C.
Compound NS(=O)(=O)c1cc2c(cc1C(F)(F)F)NCNS2(=O)=O has a melting point of 272 °C.
Compound COCN1CCOCCOCCN(COC)CCOCCOCC1 has a melting point of 33 to 38 °C.
Work on N#CC(O)C(Cl)(Cl)Cl (stereo not drawn) yielded a melting point of 61 °C.
With CC12CCCC1C1CCC3CC4(CCC3(C)C1CC2)OCCO4 (stereo not drawn) the melting point was 117 °C.
CN(C)c1ccc(N=C(C#N)c2ccc(C(C#N)=Nc3ccc(N(C)C)cc3)cc2)cc1 showed a melting point of 240 °C.
COC(=O)c1cc(I)ccc1O gave a melting point of 77 °C.
Work on CC(C)c1ncc[nH]1 yielded a melting point of 129 °C.
Work on CC(=O)OC(OC(C)=O)c1ccc2c(c1)C(=O)c1c(Cl)c(Cl)c(Cl)c(Cl)c1C2=O yielded a melting point of 172 °C.
Work on COc1c(CC(O)C(C)C)c(=O)n(C)c2c(OC)cccc12 (stereo not drawn) yielded a melting point of 86.5 °C.
Work on CCCBr yielded a melting point of -110 °C.
For C=CC(C)(C)O, the melting point was -28 °C.
Work on NC(=S)CS(=O)(=O)c1cccs1 yielded a melting point of 160 to 164 °C.
Work on c1ccc([C@@H]2COC(c3cccc(C4=N[C@H](c5ccccc5)CO4)n3)=N2)cc1 yielded a melting point of 171 to 175 °C.
CCOC(=O)c1cnn(-c2ccc(F)cc2)c1N gave a melting point of 153 to 154 °C.
Compound CC(=O)Nc1ccc([N+](=O)[O-])c(F)c1 has a melting point of 176 °C.
O=C(O)c1nc(O)n(-c2ccccc2)n1 showed a melting point of 180 °C.
Compound O=c1c2ccccc2cc2ccccn12 has a melting point of 166 °C.
In the case of Cn1c2ccccc2c2cc([N+](=O)[O-])ccc21, the melting point is reported as 172 to 174 °C.
With O=[N+]([O-])c1cccnc1Oc1ccc(Cl)cc1 the melting point was 89 to 90 °C.
CC(C)(C)OC(=O)N1CCN(c2ccc(CO)cn2)CC1 showed a melting point of 112 to 115 °C.
For COC(=O)C(O)C(O)C(=O)OC (stereo not drawn), the melting point was 59 °C.
For CNNC, the melting point was -9 °C.
In the case of O=C(O)c1cnc2ccc(OC(F)(F)F)cc2c1O, the melting point is reported as 245 °C.
Compound Nc1nc(-c2ccccc2)ns1 has a melting point of 152 to 156 °C.
